Data reported in PMC5789847, “Bismuth antimicrobial drugs serve as broad-spectrum metallo-β-lactamase inhibitors” (Nature Communications, 2018).
Several values for one entry are separate records, joined by “and”; a condition that tells them apart may be missing. Identical values can stand only once.

How the values were obtained:
[1] = target: T1, NDM-1 (Klebsiella pneumoniae, UniProt C7C422); assay type: biochemical; conditions: Bi(III) 1.5 µM (as Bi(NIT)3); 0.900 at 0 µM
Target sequence in this assay (C7C422 29-270, looked up, species assumed): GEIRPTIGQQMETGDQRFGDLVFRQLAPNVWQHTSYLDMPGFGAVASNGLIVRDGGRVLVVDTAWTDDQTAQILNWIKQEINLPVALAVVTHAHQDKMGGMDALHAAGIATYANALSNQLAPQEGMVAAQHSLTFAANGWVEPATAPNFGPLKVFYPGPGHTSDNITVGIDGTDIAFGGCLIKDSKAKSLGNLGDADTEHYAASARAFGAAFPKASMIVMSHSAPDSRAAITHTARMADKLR
Method: NDM-1 (50 nM) was incubated with Bi(NIT)3 (0.5, 1.0, and 1.5 µM) for 1 h at 25 °C with gentle shaking. The assay was performed in a 96-well microplate reader at 298 K. The final assay buffer contains 50 mM HEPES at pH 7.0, 100 mM NaCl, with MER as the substrate ranging from 10 to 150 µM. Control experiment was also performed in the absence of inhibitors under the same conditions. The Km and Vmax for both the uninhibited and inhibited reactions were obtained by fitting the data into the double reciprocal Lineweaver–Burk plots.

[2] = target: NDM-1-C208A (Klebsiella pneumoniae, UniProt C7C422, C208A); experiment: Bi(III) binding capacity by ICP-MS
Method: To monitor the displacement of Zn(II) by Bi(III), ICP-MS was employed to accurately quantify ^209Bi and ^66Zn contents in various purified NDM-1 samples. Purified Zn-bound-NDM-1 (20 μM) dissolved in trace-metal-free ICP-MS buffer containing 50 mM HEPES, pH 7.0, was incubated with various concentrations of CBS at 25 °C for 5 h with mild shaking. The samples were subsequently dialyzed in ICP-MS buffer to remove unbound-metal ions and were then acidified and subsequently analyzed using an ICP-MS spectrometer (Agilent 7500a, Agilent Technologies, CA, USA) with ^115In as an internal standard for ^209Bi, ^66Zn, and ^34S contents, which are used to quantify protein concentration.

[3] = target: T1, NDM-1; experiment: Zinc supplementation assay; assay type: biochemical; conditions: supplementation of 2 molar equivalents of Zn(II); Bi-NDM-1 prepared with CBS
Method: To investigate whether bismuth inhibits the enzyme reversibly, enzyme activities of Bi-NDM-1 and apo-NDM-1 were compared upon the supplementation of Zn(II). Bi-bound NDM-1 (50 nM) was prepared by pre-incubation of apo-bound NDM-1 with CBS for 2 h at 25 °C, followed by removal of unbound Bi(III) and the bound Bi was verified by ICP-MS. The above protein solutions were mixed with ZnSO4 at concentration up to 2 molar equivalents to NDM-1 and 100 µM MER. The change in absorbance at 300 nm was monitored on a Varian Cary 50 UV-visible spectrophotometer at 25 °C for calculation of reaction rates. Reaction rate of apo-NDM-1 with addition of 2 molar equivalents of ZnSO4 was normalized to 1. The metal content of Bi-bound NDM-1 treated with Zn(II) was measured and analyzed by ICP-MS as described in the previous section.
Target sequence in this assay (C7C422 29-270, looked up, species assumed): as above

[4] = tested on: NDM-K. pneumonia (NDM-1^+); experiment: Microdilution MIC/MBC and checkerboard assay; assay type: cell-based, Klebsiella pneumonia
Method: (§1) MIC values were determined by standard broth micro-dilution method (Clinical and Laboratory Standards Institute (CLSI) M100-S20, 2010)[64]. Briefly, bacterial cells were cultured in LB broth overnight at 37 °C at 250 rpm and the OD was measured at 600 nm (OD600). The bacterial density was adjusted to about 1 × 10^6 CFU mL^−1 and checked by CFU counting on agar plates afterwards. Tested antibiotics or Bi(III) compounds were added triplicately into individual wells of flat-bottomed 96-well plates and performed 2-fold serial dilution, followed by addition of prepared bacterial inocula. The plate was then incubated at 37 °C for overnight. […] The MIC was determined as the lowest concentration of a drug that could inhibit the growth of microorganism by both visual reading and OD reading at 600 nm using a microtiter plate reader.
(§2) Resulting growth (or lack of growth) was examined after overnight culturing and the lowest concentration that inhibits 99.9% of the original culture was taken as MBC.
(§3) Other procedures were kept strictly the same. […] Synergism was defined when FICI ≤ 0.5, indifference was defined when FICI > 0.5 and < 4, and antagonism was defined when FICI≥4[65]. […] All of the determinations were performed at least in triplicate on different days.

[5] = tested on: NDM-HK; experiment: Resistance study: MPC and mutation frequency; assay type: cell-based, E. coli; conditions: ≥64 µg mL^−1 Bi(NAC)3
[6] = target: IMP-4; experiment: IC50 enzyme inhibition assay; assay type: biochemical; conditions: IMP-4 50 nM, 1 h preincubation, MER substrate
Method: (§4) Freshly prepared 50 nM of Zn2-NDM-1, Zn2-VIM-2, or Zn2-IMP-4 in 50 mM HEPES/Na pH 7.0, 100 mM NaCl were first incubated with various concentrations of CBS for 1 h at 25 °C, then mixed with equal volume of 0.2 mM MER. The assay was performed in a 1 cm quartz cuvette using the kinetic mode on a Varian Cary50 UV-visible spectrophotometer at 25 °C. The decrease in absorbance at 300 nm due to ring-opening of MER was monitored every second for a duration of 10 min until the reaction was completed. The initial rates were extracted and calculated from each reaction curves for fitting IC50 curves.

[7] = target: VIM-2 (Escherichia coli, UniProt Q5U7L7); assay type: biochemical; conditions: VIM-2 50 nM, 1 h preincubation, MER substrate
Method: as §4

[8] = target: T1, NDM-1; assay type: biochemical; conditions: NDM-1 50 nM, 1 h preincubation, MER substrate
Method: as §4
Target sequence in this assay (C7C422 29-270, looked up, species assumed): as above

[9] = tested on: IMP-BL21 (IMP-4^+); experiment: microbe, parasite or virus in culture; assay type: cell-based, E. coli
Method: as §1, §2, §3

[10] = tested on: VIM-BL21 (VIM-2^+); experiment: microbe, parasite or virus in culture; assay type: cell-based, E. coli
Method: as §1, §2, §3

[11] = tested on: NDM-HK (NDM-1^+); experiment: microbe, parasite or virus in culture; assay type: cell-based, E. coli
Method: as §1, §2, §3

[12] = tested on: MBL-positive bacterial strains; conditions: with MER, different MBL-positive strains
Method: as §1, §2, §3

[13] = target: T1, NDM-1; assay type: cell-based; parameters: endogenous in cells; host or cells: E. coli clinical isolate NDM-HK; conditions: NDM-HK cultured with 100 µM compound; control 50.1 °C
Method: The cellular thermal shift assay was performed according to a standard method. Clinical isolate of NDM-1-positive E. coli (NDM-HK) was cultured overnight in the absence or presence of 100 µM Bi(III) compounds, i.e., CBS, Bi(NAC)3, Bi(NIT)3. The bacterial pellets were harvested and washed with PBS for 4 times. The cell suspensions were aliquoted into PCR tubes and heat treatment was performed at the designated temperature ranging from 40 °C to 70 °C for 3 min in a 96-well thermal cycler. The tubes were cooled immediately at room temperature for another 3 min after heating and the heating procedures were repeated for three cycles. For the cell lysis, the samples were frozen–thawed for two cycles in liquid nitrogen and thermal cycler set at 25 °C. The samples were vortexed gently after each cycle and were centrifuged at 20,000 × g to obtain the supernatant when the second cycle was finished. All the samples were subjected to western blot analysis for detection and quantification of NDM-1 content as described above.
Target sequence in this assay (C7C422 29-270 limits assumed): as the sequence (C7C422 29-270, looked up, species assumed) above

[14] = tested on: NDM-C. freundii (NDM-1^+); experiment: Microdilution MIC/MBC and checkerboard assay; assay type: cell-based, Citrobacter freundii
Method: as §1, §2, §3

[15] = tested on: NDM-HK; experiment: Time kill assay; assay type: cell-based, E. coli; conditions: MER 24 µg mL^−1 + Bi(NAC)3 32 µg mL^−1
Method: Time kill assay was used to further explore the synergy between MER and Bi(III) compounds. In a typical assay, NDM-HK was cultured overnight and diluted 1:250 into LB broth at 37 °C for 3 h to reach log phase. The initial bacterial density was adjusted to ~10^7 CFU mL^−1 and then exposed to MER, Bi(III) compounds either alone or in combination. LB broth with no drugs served as a control. Aliquots of bacterial suspension were withdrawn at different time intervals (0, 1, 2, 4, 6, 8, and 24 h) for inspection of bacterial viability by agar plating. The concentrations of the drugs used in the test are 24 µg mL^−1 for MER, 64 µg mL^−1 for CBS, and 32 µg mL^−1 for Bi(NAC)3. Data from three independent experiments were averaged and plotted as log10 CFU mL^−1 vs. time (h) for each time point over 24 h. All assays were triplicated and performed three times on different days.

NDM-1-C208A, sequence (C7C422 29-270 C208A): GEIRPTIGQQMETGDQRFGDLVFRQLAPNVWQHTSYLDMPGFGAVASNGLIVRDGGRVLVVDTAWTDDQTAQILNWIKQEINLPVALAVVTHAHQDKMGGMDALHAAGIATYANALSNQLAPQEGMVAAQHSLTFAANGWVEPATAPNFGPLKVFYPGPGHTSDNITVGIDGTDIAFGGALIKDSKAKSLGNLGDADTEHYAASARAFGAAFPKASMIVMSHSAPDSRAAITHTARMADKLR

## [Bi+3] [Bi(III)]
[1]
  apparent Vmax: 0.365 µM/s
[2]
  Bi(III) bound to the mutant: ca. 0.25 molar equivalents
[3]
  activity restored for Bi-bound NDM-1: about 20%

## CC(=O)N[C@@H](C[S][Bi]([S]C[C@H](NC(C)=O)C(=O)O)[S]C[C@H](NC(C)=O)C(=O)O)C(=O)O [Bi(NAC)3]
[4]; NDM-K. pneumonia (NDM-KP)
  MBC of MER in combination with compound at 32 µg mL^-1: 2 µg/mL
  MIC of MER in combination with compound at 32 µg mL^-1: 1 µg/mL
[4]; NDM-KP
  MBC of Bi(III) compound alone: > 256 µg/mL
  MIC of Bi(III) compound alone: 256 µg/mL
[4]; NDM-KP, MER + compound, 256 µg mL^-1 set as MIC of Bi(III)
  FICI: 0.188
[5]
  MER MPC with Bi(NAC)3: 2 fold MIC
[6]
  IC50: 2.8 ± 0.79 µM
[7]
  IC50: 2.65 ± 0.57 µM
[8]
  IC50: 1.65 ± 0.6 µM
[9]; IMP-4-positive E. coli
  decrease in the MIC of MER: 16 fold
[9]; IMP-BL21
  MBC of MER in combination with compound at 32 µg mL^-1: 2 µg mL^-1 and 2/2 µg mL^-1
  MIC of MER in combination with compound at 32 µg mL^-1: 2 µg mL^-1 and 2/2 µg mL^-1
[9]; IMP-BL21, MER + compound, 256 µg mL^-1 set as MIC of Bi(III)
  FICI: 0.125
[10]; VIM-2-positive E. coli
  decrease in the MIC of MER: 64 fold
[10]; VIM-BL21
  MBC of MER in combination with compound at 32 µg mL^-1: 1 µg/mL
  MIC of MER in combination with compound at 32 µg mL^-1: 0.5 µg/mL
[10]; VIM-BL21, MER + compound, 256 µg mL^-1 set as MIC of Bi(III)
  FICI: 0.063
[11]; NDM-1-positive E. coli
  decrease in the MIC of MER: 32 fold
[11]; NDM-HK
  MBC of Bi(III) compound/inhibitor alone: > 256 µg/mL
  MBC of MER in combination with compound at 32 µg mL^-1: 0.5 µg/mL
  MIC of Bi(III) compound/inhibitor alone: 128 µg/mL
  MIC of MER in combination with compound at 32 µg mL^-1: 0.5 µg/mL
[12]
  FICI values: 0.063 to 0.188
[13]
  NDM-1 melting temperature, treated group: 47.7 °C
[14]; NDM-C. freundii (NDM-CF)
  MBC of MER in combination with compound at 32 µg mL^-1: 0.5 µg mL^-1 and 0.5/0.5 µg mL^-1
  MIC of MER in combination with compound at 32 µg mL^-1: 0.5 µg mL^-1 and 0.5/0.5 µg mL^-1
[14]; NDM-CF
  MBC of Bi(III) compound alone: > 256 µg/mL
  MIC of Bi(III) compound alone: 256 µg/mL
[14]; NDM-CF, MER + compound, 256 µg mL^-1 set as MIC of Bi(III)
  FICI: 0.188
[15]
  time to eradicate the bacterium completely: ≤ 6 h
